Experimental data from patent US10117942B2, “Photoactivatable lipid-based nanoparticles as vehicles for dual agent delivery” (The United States of America, as represented by the …, priority 2013, dated 2018).

Columns and labels:
[1] = at physiological pH; cited from earlier work
[2] = 0.5 mg or 2.5 mg liposomal lipid
Protocol: As a control, mice were injected with doxorubicin in the absence of liposomes.

organ uptake (fluorescence Ex=500, Em=600) [2]	Structure (SMILES)	log P [1]
	CCCCCCOC(C)c1c(C)c2cc3nc(c4c5[nH]c(cc6nc(cc1[nH]2)C(C)=C6CC)c(C)c5C(=O)C4)[C@@H](CCC(=O)O)[C@@H]3C (some centres unmarked) [HPPH, 2-[1-hexyloxyethyl]-2-devinyl pyropheophorbide-a]	5.6
no fluorescence was observed	COc1cccc2c1C(=O)c1c(O)c3c(c(O)c1C2=O)C[C@@](O)(C(=O)CO)C[C@@H]3O[C@H]1C[C@H](N)[C@H](O)[C@H](C)O1 [doxorubicin]	
